According to US20250059395A1, “SURFACTANTS FOR INKS, PAINTS, AND ADHESIVES” (AdvanSix Resins & Chemicals LLC, priority 2023, published 2025):

Assay: Critical micelle concentration and surface tension by Wilhelmy plate method
Format: physicochemical
Conditions: comparison of Surfactant 9 and Comparative Surfactant
From the text: As surfactant concentration increases, surface tension decreases. Once the surface is completely overlaid with surfactant molecules, micelles begin to form. This point represents the CMC, as well as the minimum surface tension. Further addition of surfactant will not further affect the surface tension. CMC may therefore be measured by observing the change in surface tension as a function of surfactant concentration. One such method for measuring this value is the Wilhemy plate method. A Wilhelmy plate is usually a thin iridium-platinum plate attached to a balance by a wire and placed perpendicularly to the air-liquid interface. The balance is used to measure the force exerted on the plate by wetting. This value is then used to calculate the surface tension (Y) according to Equation 1: […]
Nuclear magnetic resonance (NMR) spectroscopy was performed on a Bruker 500 MHz spectrometer. The critical micelle concentration (CMC) was determined by the Wilhelmy plate method at 23° C. with a tensiometer (DCAT 11, DataPhysics Instruments GmbH) equipped with a Pt—Ir plate. Dynamic surface tension was determined with a bubble pressure tensiometer (Krüss BP100, Krüss GmbH), at 23° C. Contact angle was determined with the optical contact angle goniometer (OCA 15 Pro, DataPhysics GmbH) equipped with a digital camera.

| SMILES | surfactant properties (activity in words) |
| --- | --- |
| C[N+](C)(CCCCCC(=O)NCCC[Si](O[Si](C)(C)C)(O[Si](C)(C)C)O[Si](C)(C)C)CC(=O)O [Comparative Surfactant, N-(carboxymethyl)-6-((3-(1,1,1,5,5,5-hexamethyl-3-((trimethylsilyl)oxy)trisiloxan-3-yl)propyl)amino)-N,N-dimethyl-6-oxohexan-1-aminium bromide] | inferior surfactant properties |
| C[N+](C)(CCCCCC(=O)O)CCCCCC(=O)NCCC[Si](O[Si](C)(C)C)(O[Si](C)(C)C)O[Si](C)(C)C [Surfactant 9, N-(5-carboxypentyl)-6-((3-(1,1,1,5,5,5-hexamethyl-3-((trimethylsilyl)oxy)trisiloxan-3-yl)propyl)amino)-N,N-dimethyl-6-oxohexan-1-aminium bromide] | excellent activity |
